According to patent US11470846B2, “Herbicidal pyridino-/pyrimidino-thiazoles” (SYNGENTA PARTICIPATIONS AG, priority 2014, dated 2022):

Tests used:
Type in all cases: in vivo
Avena fatua (AVEFA) [1] = test: Post-emergence herbicidal activity; settings: post-emergence application, 1000 g/Ha, evaluated after 13 days, scale 0-5
Protocol: (§1) B2 Post-Emergence Herbicidal Activity
(§2) Seeds of a variety of test species were sown in standard soil in pots: Triticum aestivium (TRZAW), Oryza sativa (ORYSA), Avena fatua (AVEFA), Alopecurus myosuroides (ALOMY), Echinochloa crus-galli (ECHCG), Lolium perenne (LOLPE), Zea Mays (ZEAMX), Abutilon theophrasti (ABUTH), Amaranthus retroflexus (AMARE) and Setaria faberi (SETFA). After 8 days cultivation (post-emergence) under controlled conditions in a glasshouse (at 24/16° C., day/night; 14 hours light; 65% humidity), the plants were sprayed with an aqueous spray solution derived from the formulation of the technical active ingredient in acetone/water (50:50) solution containing 0.5% Tween 20 (polyoxyethelyene sorbitan monolaurate, CAS RN 9005-64-5). The test plants were then grown in a glasshouse under controlled conditions (at 24/16° C., day/night; 14 hours light; 65% humidity) and watered twice daily. After 13 days, the test was evaluated (5=total damage to plant; 0=no damage to plant).

Lolium perenne (LOLPE) [2] = test: Post-emergence herbicidal activity; settings: post-emergence application, 1000 g/Ha, evaluated after 13 days, scale 0-5; Table 7
Protocol: as §1, §2

[3] = test system: Triticum aestivium (TRZAW); test: Post-emergence herbicidal activity; settings: post-emergence application, 1000 g/Ha, evaluated after 13 days, scale 0-5
Protocol: as §1, §2

[4] = test system: Echinochloa crus-galli (ECHCG); test: Post-emergence herbicidal activity; settings: post-emergence application, 1000 g/Ha, evaluated after 13 days, scale 0-5; Table 7
Protocol: as §1, §2

Oryza sativa (ORYSA) [5] = test: Post-emergence herbicidal activity; settings: post-emergence application, 1000 g/Ha, evaluated after 13 days, scale 0-5
Protocol: as §1, §2

[6] = test system: Alopecurus myosuroides (ALOMY); test: Post-emergence herbicidal activity; settings: post-emergence application, 1000 g/Ha, evaluated after 13 days, scale 0-5
Protocol: as §1, §2

Avena fatua (AVEFA) [7] = test: Pre-emergence herbicidal activity; settings: pre-emergence application, 1000 g/Ha, evaluated after 13 days, scale 0-5
Protocol: (§3) B1 Pre-Emergence Herbicidal Activity
as §2, with “After” for “After 8 days”, “for one day (pre-emergence)” for “(post-emergence)”

Lolium perenne (LOLPE) [8] = test: Pre-emergence herbicidal activity; settings: pre-emergence application, 1000 g/Ha, evaluated after 13 days, scale 0-5; Table 5
Protocol: as §3
as §2, with “After” for “After 8 days”, “for one day (pre-emergence)” for “(post-emergence)”

[9] = test system: Triticum aestivium (TRZAW); test: Pre-emergence herbicidal activity; settings: pre-emergence application, 1000 g/Ha, evaluated after 13 days, scale 0-5
Protocol: as §3
as §2, with “After” for “After 8 days”, “for one day (pre-emergence)” for “(post-emergence)”

[10] = test system: Echinochloa crus-galli (ECHCG); test: Pre-emergence herbicidal activity; settings: pre-emergence application, 1000 g/Ha, evaluated after 13 days, scale 0-5; Table 5
Protocol: as §3
as §2, with “After” for “After 8 days”, “for one day (pre-emergence)” for “(post-emergence)”

Oryza sativa (ORYSA) [11] = test: Pre-emergence herbicidal activity; settings: pre-emergence application, 1000 g/Ha, evaluated after 13 days, scale 0-5
Protocol: as §3
as §2, with “After” for “After 8 days”, “for one day (pre-emergence)” for “(post-emergence)”

[12] = test system: Alopecurus myosuroides (ALOMY); test: Pre-emergence herbicidal activity; settings: pre-emergence application, 1000 g/Ha, evaluated after 13 days, scale 0-5
Protocol: as §3
as §2, with “After” for “After 8 days”, “for one day (pre-emergence)” for “(post-emergence)”

Row | SMILES | Control of weed species, AVEFA (damage score) (Avena fatua (AVEFA) [1]) | Control of weed species, LOLPE (damage score) (Lolium perenne (LOLPE) [2]) | Control of weed species, TRZAW (damage score) [3] | Control of weed species, ECHCG (damage score) [4] | Control of weed species, ORYSA (damage score) (Oryza sativa (ORYSA) [5]) | Control of weed species, ALOMY (damage score) [6] | Control of weed species, AVEFA (damage score) (Avena fatua (AVEFA) [7]) | Control of weed species, LOLPE (damage score) (Lolium perenne (LOLPE) [8]) | Control of weed species, TRZAW (damage score) [9] | Control of weed species, ECHCG (damage score) [10] | Control of weed species, ORYSA (damage score) (Oryza sativa (ORYSA) [11]) | Control of weed species, ALOMY (damage score) [12]
1 | CSc1cncc(-c2nc(C)c(N(C)C(=O)OC(C)(C)C)s2)c1 [Compound A12] | 2 | 3 | 2 | 4 | 1 | 0 | 3 | 1 | 0 | 3 | 0 | 0
2 | Cc1nc(-c2cncc(N(C)C)c2)sc1N(C)C(=O)OC(C)(C)C [Compound A13] | 0 | 0 | 2 | 2 | 1 | 1 | 0 | 0 | 0 | 1 | 1 | 0
3 | Cc1nc(-c2cncc(OCc3ccccc3)c2)sc1N(C)C(=O)OC(C)(C)C [Compound A14] | 0 | 0 | 0 | 1 | 0 | 0 | 0 | 1 | 1 | 0 | 0 | 0
4 | Cc1nc(-c2cncc(O)c2)sc1N(C)C(=O)OC(C)(C)C [Compound A15] | 2 | 1 | 1 | 1 | 0 | 0 | 0 | 0 | 0 | 0 | 0 | 0
5 | Cc1nc(-c2cncc(OC(F)F)c2)sc1N(C)C(=O)OC(C)(C)C [Compound A16, tert-butyl N-[2-[5-(difluoromethoxy)-3-pyridyl]-4-methyl-thiazol-5-yl]-N-methyl-carbamate] | 5 | 4 | 4 | 5 | 0 | 3 | 3 | 4 | 3 | 4 | 1 | 0
